Here are results for 26 compounds from PMC9492458, “Development and structure–activity relationships of tanshinones as selective 11β-hydroxysteroid dehydrogenase 1 inhibitors” (Natural Products and Bioprospecting, 2022).

As a reminder, the IC50 is the point on the concentration scale where inhibition reaches its midpoint. High values mean lower potency, low ones higher potency.

The target in test [1] is mouse 11β-HSD1 (Mus musculus, UniProt P50172). The experiment in a line: scintillation proximity assay (SPA), microsomes of HEK-293 cells transfected with mouse 11β-HSD1. As to conditions: for Mouse SI (selectivity index): SI = IC50(HSD2)/IC50(HSD1); for inhibition at 1 µM: read-out: Inhibitory ratio m-HSD1, at 1.0 μM, averages of three determinations.
Sequence of mouse 11β-HSD1 (P50172 whole entry): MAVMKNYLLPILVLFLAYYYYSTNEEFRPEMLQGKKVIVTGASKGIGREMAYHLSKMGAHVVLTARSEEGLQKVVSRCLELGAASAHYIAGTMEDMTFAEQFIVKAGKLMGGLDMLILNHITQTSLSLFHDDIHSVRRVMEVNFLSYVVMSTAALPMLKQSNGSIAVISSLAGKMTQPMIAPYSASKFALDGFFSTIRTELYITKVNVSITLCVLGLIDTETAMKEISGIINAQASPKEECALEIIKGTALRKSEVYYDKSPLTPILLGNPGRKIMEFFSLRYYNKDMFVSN
Procedure: (§1) With diverse tanshinones in hand, inhibition of human and mouse 11β-HSD1 enzymatic potency was measured by scintillation proximity assay (SPA) using microsomes containing 11β-HSD1 [46, 47]. Results are reported as the average of two or three independent experiments at each concentration.
(§2) The SPA was used to screen for inhibitors of 11β-HSDs [48], with the microsome fractions prepared from the HEK-293 cells stably transfected with either human or mouse 11β-HSD1 or 11β-HSD2 as the enzyme source. […] Reactions were initiated by the addition of 11β-HSD1 or 11β-HSD2, enzyme. […] The plates were incubated under plastic film on an orbital shaker for 120 min at room temperature before counting. The amount of [^3H]-cortisol generated in 11β-HSD1 enzyme reaction or remaining from the 11β-HSD2 enzyme reaction was captured by the beads and determined in a microplate liquid scintillation counter. The % inhibition was calculated relative to a non-inhibited control. Data were obtained from two or three independent experiments. IC50 values were calculated from concentration–response curves by a non-linear regression analysis using Prism Version 6.
Test [2] deals with T1, mouse 11β-HSD2 (Mus musculus, UniProt P51661).
T1 sequence (P51661 1-386): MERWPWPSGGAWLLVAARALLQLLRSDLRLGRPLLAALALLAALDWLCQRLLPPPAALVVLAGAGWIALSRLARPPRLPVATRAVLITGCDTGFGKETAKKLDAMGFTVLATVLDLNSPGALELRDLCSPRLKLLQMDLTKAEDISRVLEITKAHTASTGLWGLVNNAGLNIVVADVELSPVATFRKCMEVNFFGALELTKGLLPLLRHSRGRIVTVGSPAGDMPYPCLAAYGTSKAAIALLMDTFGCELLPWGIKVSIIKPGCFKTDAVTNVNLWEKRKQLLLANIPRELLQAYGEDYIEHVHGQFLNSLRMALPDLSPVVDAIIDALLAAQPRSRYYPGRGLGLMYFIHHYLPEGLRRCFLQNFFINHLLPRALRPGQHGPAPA
The experiment in a line: scintillation proximity assay (SPA), microsomes of HEK-293 cells transfected with mouse 11β-HSD2. A general note: SPA uses beads or plates that emit light when radiolabelled molecules are held near them.
Procedure: as §1, §2

The target in test [3] is human 11β-HSD1 (Homo sapiens, UniProt P28845). In words: scintillation proximity assay (SPA), microsomes of HEK-293 cells transfected with human 11β-HSD1. As to conditions: for inhibition at 1 µM: read-out: Inhibitory ratio h-HSD1, at 1.0 μM, averages of three determinations; for Human SI (selectivity index): Table 3, SI = IC50(HSD2)/IC50(HSD1).
Sequence of human 11β-HSD1 (P28845 whole entry): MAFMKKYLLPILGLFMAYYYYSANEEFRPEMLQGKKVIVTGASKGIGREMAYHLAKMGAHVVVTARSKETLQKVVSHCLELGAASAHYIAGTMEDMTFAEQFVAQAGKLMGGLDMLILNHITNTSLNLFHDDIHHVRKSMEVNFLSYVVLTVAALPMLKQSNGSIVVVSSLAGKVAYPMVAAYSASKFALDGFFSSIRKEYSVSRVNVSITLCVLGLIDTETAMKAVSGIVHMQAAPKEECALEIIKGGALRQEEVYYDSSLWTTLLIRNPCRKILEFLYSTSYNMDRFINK
Procedure: as §1, §2
The target in test [4] is T2, human 11β-HSD2 (Homo sapiens, UniProt P80365).
T2 sequence (P80365 1-405): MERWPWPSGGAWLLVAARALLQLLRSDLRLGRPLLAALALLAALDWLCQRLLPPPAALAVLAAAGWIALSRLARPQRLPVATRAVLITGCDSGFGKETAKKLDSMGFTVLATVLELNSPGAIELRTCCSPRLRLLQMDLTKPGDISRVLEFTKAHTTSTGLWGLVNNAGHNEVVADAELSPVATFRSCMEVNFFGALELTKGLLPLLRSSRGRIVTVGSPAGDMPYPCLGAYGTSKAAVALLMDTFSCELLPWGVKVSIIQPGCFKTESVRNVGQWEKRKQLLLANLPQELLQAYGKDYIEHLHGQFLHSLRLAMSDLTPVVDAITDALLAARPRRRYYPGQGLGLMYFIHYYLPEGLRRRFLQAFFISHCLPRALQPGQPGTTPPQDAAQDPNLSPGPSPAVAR
In words: scintillation proximity assay (SPA), microsomes of HEK-293 cells transfected with human 11β-HSD2.
Procedure: as §1, §2

Structures are written as SMILES.

As to `Cc1coc2c1C(=O)C(=O)c1c-2ccc2c1[C@H](O)[C@@H](O)CC2(C)C` (racemic) [Compound 18a], the IC50 was 138 ± 10.8 nM in test [1] and more than 100 µM in test [2]. Further, in test [1] (Table 3), the “Mouse SI (selectivity index)” value was more than 724.1. In addition, the figures for the inhibition at 1 µM in test [1] and in test [3] were 89 ± 3.5% and 31.1 ± 0.2%, respectively.
Regarding `C[C@H]1COC2=C1C(=O)C(=O)c1c2ccc2c1CCCC2(C)C` [Compound 2, cryptotanshinone], the half-maximal inhibitory concentration (IC50) in test [1] was 41.8 ± 8.7 nM; in test [2] it was more than 1000 µM; in test [3], 73.1 ± 31.3 nM; in test [4], 12.1 µM. Moreover, the “Mouse SI (selectivity index)” value in test [1] (Table 1) is reported as > 23,923. Besides, the figures for the inhibition at 1 µM in test [1] and in test [3] were 89.9 ± 3.7% and 91.3 ± 0.1%, respectively.
As for `Cc1coc2c1c(=O)oc1c3ccccc3ccc21` [Compound 9], the values for the inhibition at 1 µM in test [1] and in test [3] were 8.4% and 14 ± 1.3%, respectively.
Regarding `Cc1coc2c1C(=O)C(=O)c1ccccc1-2` [Compound 10], the IC50 in test [1] was 66.5 ± 5.6 nM; in test [2] it was more than 10 µM; in test [3], 121 nM; in test [4] it was more than 10 µM. For the same compound, in test [1] (Table 3), the “Mouse SI (selectivity index)” value is reported as more than 150.3. Moreover, the inhibition at 1 µM in test [1] amounted to 89.9 ± 0.9%; in test [3], 87.6 ± 2.2%. The “Human SI (selectivity index)” value in test [3] is recorded as more than 82.5.
For the compound `Cc1coc2c1C(=O)C(=O)C=C2` [Compound 11], the inhibition at 1 µM in test [1] was found to be 33 ± 2.3%; in test [3], 9.9 ± 1.1%.
`Cc1coc2ccc(O)cc12` [Compound 12]: the inhibition at 1 µM was found to be 12.4 ± 1.4% in test [1] and 10 ± 2.3% in test [3].
On to `Cc1coc2c1C(=O)C(=O)c1c-2ccc2c1CCC(O)C2(C)C` (centres unmarked) [Compound 15], for which the IC50 was 72.9 ± 9.3 nM in test [1] and more than 100 µM in test [2]. In addition, the “Mouse SI (selectivity index)” value in test [1] (Table 3) is recorded as more than 1371.7. The results for the inhibition at 1 µM in test [1] and in test [3] were 85.3 ± 0.2% and 40.6 ± 1.5%, respectively.
`CC(=O)OC1CCc2c(ccc3c2C(=O)C(=O)c2c(C)coc2-3)C1(C)C` (centres unmarked) [Compound 16]: the IC50 in test [1] was 10.1 ± 0.8 nM; in test [2] it was more than 100 µM; in test [3] it was 890 ± 100 nM; in test [4] it was 7.3 ± 2.2 µM. In addition, in test [1] (Table 3), the “Mouse SI (selectivity index)” value is reported as more than 9900.9. In addition, the inhibition at 1 µM in test [1] was 89.3 ± 1.5%; in test [3], 50.3 ± 2.7%. In test [3], the “Human SI (selectivity index)” value turned out to be 8.2.
For `Cc1coc2c1C(=O)C(=O)c1c-2ccc2c1C(=O)C(O)CC2(C)C` (centres unmarked) [Compound 18b], the inhibition at 1 µM worked out at 49.4 ± 1.6% in test [1] and 43.2 ± 1.7% in test [3].
For `Cc1coc2c1C(=O)C(=O)c1c-2ccc2c1C[C@@H](O)CC2(C)C` [Compound 19], the IC50 in test [1] was 48.4 ± 6.6 nM; in test [2], more than 10 µM; in test [3] it was 320 nM; in test [4] it was 2.7 ± 0.5 µM. Also, the “Mouse SI (selectivity index)” value in test [1] (Table 3) is listed as more than 206.6. Moreover, the inhibition at 1 µM in test [1] was 86.7 ± 2.1%; in test [3], 63.9 ± 2.7%. Moreover, the “Human SI (selectivity index)” value in test [3] came to 8.3.
Consider `Cc1coc2c1C(=O)C(=O)c1c-2ccc2c1C(=O)C(O)=CC2(C)C` [Compound 20], for which the IC50 in test [1] is 96.6 ± 16.5 nM; in test [2], more than 10 µM. For the same compound, the “Mouse SI (selectivity index)” value in test [1] (Table 3) is more than 103.6. Further, the inhibition at 1 µM in test [1] was 81.8 ± 1.5%; in test [3] it was 38.5 ± 2.2%.
With `CC(=O)Oc1c2c(c3ccc4c(c3c1OC(C)=O)CCCC4(C)C)OC[C@@H]2C` [Compound 21], the inhibition at 1 µM in test [1] amounted to 28.6 ± 0.3%; in test [3], 5.1 ± 1.8%.
For `Cc1c[nH]c2c1C(=O)C(=O)c1c-2ccc2c1CCCC2(C)C` [Compound 24], the inhibition at 1 µM in test [1] was 56 ± 2.2%; in test [3], 33.6 ± 0.8%.
With `C[C@@H](CO)C1=C(N)c2ccc3c(c2C(=O)C1=O)CCCC3(C)C` [Compound 25], the IC50 in test [1] was 95 ± 17.8 nM; in test [2], more than 10 µM. Besides, the “Mouse SI (selectivity index)” value in test [1] (Table 3) is given as more than 105.3. Further, the inhibition at 1 µM amounted to 85.1 ± 0.6% in test [1] and 35.5 ± 2.8% in test [3].
For the compound `Cc1coc2c3ccc4c(c3c3[nH]c(-c5ccc(O)cc5)nc3c12)CCCC4(C)C` [Compound 26], the inhibition at 1 µM turned out to be 19.2 ± 5.3% in test [1] and 12.8 ± 0.8% in test [3].
For `Cc1c(-c2ccccc2)oc2c1C(=O)C(=O)c1c-2ccc2c1CCCC2(C)C` [Compound 27a] the same measures were 25.9 ± 0.3% and 33.9 ± 1.8%.
The matching figures for `Cc1c(-c2ccc(F)cc2)oc2c1C(=O)C(=O)c1c-2ccc2c1CCCC2(C)C` [Compound 27b]: 5.6 ± 0.5% and 3.8 ± 1.5%.
`Cc1c(-c2ccncc2)oc2c1C(=O)C(=O)c1c-2ccc2c1CCCC2(C)C` [Compound 27c]: the IC50 in test [1] is 6.9 ± 1.2 nM; in test [2], more than 10 µM; in test [3], 126 ± 0.5 nM; in test [4], 6.1 ± 0.7 µM. Also, the “Mouse SI (selectivity index)” value in test [1] (Table 3) is listed as more than 1451.4. Further, the values for the inhibition at 1 µM in test [1] and in test [3] were 70.6 ± 0.5% and 82.5 ± 0.9%, respectively. Also, in test [3], the “Human SI (selectivity index)” value was determined as 48.4.
Turning to `Cc1c(-c2ccsc2)oc2c1C(=O)C(=O)c1c-2ccc2c1CCCC2(C)C` [Compound 27d], the inhibition at 1 µM in test [1] came out at 37.4 ± 2.8%; in test [3], 14.5 ± 1.4%.
The matching figures for `Cc1c(-c2ccnc3ccccc23)oc2c1C(=O)C(=O)c1c-2ccc2c1CCCC2(C)C` [Compound 27e]: 42.9 ± 3.7% and 15.1 ± 0.8%.
As to `Cc1c(CN(C)C)oc2c1C(=O)C(=O)c1c-2ccc2c1CCCC2(C)C` [Compound 29a], the IC50 in test [1] was 17.1 ± 0.9 nM; in test [2], more than 100 µM; in test [3] it was 38 ± 0.4 nM; in test [4], 5.6 ± 0.9 µM. The “Mouse SI (selectivity index)” value in test [1] (Table 3) is listed as more than 5813.9. Besides, the inhibition at 1 µM was found to be 96.6 ± 0.6% in test [1] and 92.1 ± 2.4% in test [3]. The “Human SI (selectivity index)” value in test [3] was determined as 147.9.
As to `Cc1c(CN2CCOCC2)oc2c1C(=O)C(=O)c1c-2ccc2c1CCCC2(C)C` [Compound 29c], the inhibition at 1 µM in test [1] came to 6.7 ± 4.3%; in test [3], 45.2 ± 0.7%.
Take `CC1(C)CCCc2c1ccc1c2C(=O)C(=O)c2c(CNc3ccccc3)coc2-1` [Compound 31a]: the IC50 in test [1] was 56.6 ± 0.7 nM; in test [2], more than 10 µM; in test [3], more than 1000 nM. The “Mouse SI (selectivity index)” value in test [1] (Table 3) is more than 176.4. Moreover, the inhibition at 1 µM in test [1] was found to be 88.9 ± 3.5%; in test [3] it was 32.6 ± 5.8%.
As to `CC1(C)CCCc2c1ccc1c2C(=O)C(=O)c2c(CN3CCOCC3)coc2-1` [Compound 31b], the inhibition at 1 µM in test [1] was determined as 37 ± 3.2%; in test [3] it was 16.9 ± 3.7%.
With `CC1(C)CCCc2c1ccc1c2C(=O)C(=O)c2c-1oc(Cl)c2CO` [Compound 32], the IC50 is 328 ± 20.2 nM in test [1], more than 10 µM in test [2] and more than 1000 nM in test [3]. The “Mouse SI (selectivity index)” value in test [1] (Table 3) is reported as more than 30.5. The inhibition at 1 µM in test [1] came out at 70.1 ± 1.1%; in test [3], 21.4 ± 1.8%.
On to `CC(=O)OC1CCc2c(ccc3c2C(=O)C(=O)c2c(CO)coc2-3)C1(C)C` (centres unmarked) [Compound 35], for which the IC50 is 21.9 ± 7.9 nM in test [1] and more than 100 µM in test [2]. Moreover, the “Mouse SI (selectivity index)” value in test [1] (Table 3) is on record as more than 4575.5. Besides, the inhibition at 1 µM in test [1] was determined as 83.6 ± 1.9%; in test [3], 48.9 ± 1.9%.
